According to the NIST ThermoML archive (doi:10.1021/je200757a):

What was measured:
[1] = refractive index (Na D-line) (dimensionless); xn = mol fraction of the nth substance listed; conditions: 101 kPa, Liquid
[2] = xn = mol fraction of the nth substance listed; conditions: for surface tension liquid-gas: Capillary rise; for viscosity / mass density: 101 kPa, Liquid; for viscosity: Capillary tube (Ostwald / Ubbelohde) method; for mass density: Vibrating tube method

C1C[C@@H]2[C@H]3CC[C@H](C3)[C@@H]2C1 [exo-tetrahydrodicyclopentadiene] + CCCCCCCCC
Conditions	mass density, [2] [kg/m3]	refractive index, [1]	surface tension liquid-gas, [2] [mN/m]	viscosity, [2] [mPa·s]
293.15 K, x2 = 0	935.3	1.4877	31.86	3.077
293.15 K, x2 = 0.1089	907.6	1.4777	30.17	2.455
293.15 K, x2 = 0.2212	880.1	1.4667	27.92	2.005
293.15 K, x2 = 0.3244	855.8	1.457	27.12	1.683
293.15 K, x2 = 0.4159	835.1	1.45	26.34	1.459
293.15 K, x2 = 0.5099	814.5	1.4422	25.59	1.277
293.15 K, x2 = 0.6161	792	1.4332	24.35	1.109
293.15 K, x2 = 0.7128	772.3	1.426	23.84	0.985
293.15 K, x2 = 0.8078	753.7	1.4192	23.14	0.887
293.15 K, x2 = 0.9133	733.7	1.4114	22.6	0.795
298.15 K, x2 = 0	931.4	–	–	2.784
298.15 K, x2 = 0.1089	903.7	–	–	2.229
298.15 K, x2 = 0.2212	876.2	–	–	1.836
298.15 K, x2 = 0.3244	851.9	–	–	1.545
298.15 K, x2 = 0.4159	831.2	–	–	1.344
298.15 K, x2 = 0.5099	810.6	–	–	1.176
298.15 K, x2 = 0.6161	788.1	–	–	1.028
298.15 K, x2 = 0.7128	768.4	–	–	0.917
298.15 K, x2 = 0.8078	749.8	–	–	0.827
298.15 K, x2 = 0.9133	729.8	–	–	0.744
303.15 K, x2 = 0	927.5	1.4832	31.09	2.525
303.15 K, x2 = 0.1089	899.8	1.4728	29.01	2.04
303.15 K, x2 = 0.2212	872.3	1.4627	27.45	1.687
303.15 K, x2 = 0.3244	848	1.4517	26.63	1.426
303.15 K, x2 = 0.4159	827.2	1.445	25.74	1.244
303.15 K, x2 = 0.5099	806.6	1.4377	24.86	1.091
303.15 K, x2 = 0.6161	784.2	1.4282	23.36	0.958
303.15 K, x2 = 0.7128	764.5	1.421	22.88	0.856
303.15 K, x2 = 0.8078	745.9	1.4139	22.39	0.775
303.15 K, x2 = 0.9133	725.9	1.4062	21.81	0.699
313.15 K, x2 = 0	919.6	–	–	2.112
313.15 K, x2 = 0.1089	891.9	–	–	1.728
313.15 K, x2 = 0.2212	864.4	–	–	1.441
313.15 K, x2 = 0.3244	840.1	–	–	1.227
313.15 K, x2 = 0.4159	819.4	–	–	1.077
313.15 K, x2 = 0.5099	798.8	–	–	0.951
313.15 K, x2 = 0.6161	776.3	–	–	0.839
313.15 K, x2 = 0.7128	756.7	–	–	0.754
313.15 K, x2 = 0.8078	738	–	–	0.686
313.15 K, x2 = 0.9133	718.1	–	–	0.622
